Here are results for ten compounds from PubChem BioAssay (NCI).

Some test systems named below: A549 NSCLC; CAKI-1 renal; CCRF-CEM leukemia; MOLT-4 leukemia; RPMI-8226 leukemia; SF-268 CNS; SK-MEL-28 melanoma; SNB-19 CNS; SW-620 colon; SK-MEL-5 melanoma.
Common to all, as to test: DTP human tumour cell line panel, 48 h

In general, TGI refers to the concentration giving total growth inhibition. In general, GI50 refers to the concentration giving 50% growth inhibition.

Structures are written as SMILES.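 Dose response: 5 concentrations. Exposure: 48 h. Format: 96-well plates. Endpoint: linear interpolation; highest concentration if not reached. Abbreviation: GI50, concentration required for 50% inhibition of growth. At the TGI there is no net growth.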

For the compound `O=C1NC(=O)C2=C1CCC2O` (stereo unspecified), the TGI in the experiment with A549 NSCLC, in the experiment on CAKI-1 renal, with CCRF-CEM leukemia, with MOLT-4 leukemia, in the experiment on RPMI-8226 leukemia and in the experiment on SF-268 CNS was over 100 µM each time. Besides, the TGI in the experiment with SK-MEL-28 melanoma, with SNB-19 CNS and with SW-620 colon was over 100 µM in each case.
Regarding `COC(=O)c1ccc(-c2nc3cc(F)c(F)cc3nc2C#N)cc1`, the GI50 in the experiment on A549 NSCLC is 10.8 µM; in the experiment with CAKI-1 renal, 8.48 µM; in the experiment with CCRF-CEM leukemia, 2.27 µM; in the experiment with MOLT-4 leukemia it was 3.27 µM; with SF-268 CNS, 1.5 µM; with SK-MEL-28 melanoma, 9.58 µM. In addition, the GI50 was 6.87 µM in the experiment on SK-MEL-5 melanoma, 9.35 µM in the experiment with SNB-19 CNS and 4.66 µM in the experiment on SW-620 colon. Further, the TGI in the experiment with A549 NSCLC stood at 25.6 µM; in the experiment with CAKI-1 renal, 18.5 µM; with CCRF-CEM leukemia, 18.7 µM; in the experiment on MOLT-4 leukemia, 12.3 µM; with SF-268 CNS, 4.64 µM; with SK-MEL-28 melanoma it was 33.9 µM. In addition, the TGI in the experiment with SK-MEL-5 melanoma was 13.7 µM; in the experiment on SNB-19 CNS, 17 µM; in the experiment with SW-620 colon, 16.8 µM.
Turning to `O=C(Nc1cccc(C2=NCCN2)c1)c1ccc(OCCCOc2ccc(C(=O)Nc3cccc(C4=NCCN4)c3)cc2)cc1`, the GI50 with CAKI-1 renal is 4.67 µM; with CCRF-CEM leukemia, 4 µM; with MOLT-4 leukemia, 3.86 µM; in the experiment on SNB-19 CNS, 2.69 µM. Further, the TGI was 84.6 µM in the experiment on CAKI-1 renal, over 100 µM in the experiment with CCRF-CEM leukemia, over 100 µM in the experiment on MOLT-4 leukemia and over 100 µM in the experiment with SNB-19 CNS.
For the compound `COc1ccc(/C=C/C(=O)/C=C(/C=C/c2ccc(OC)c(OC)c2)OB(F)F)cc1OC`, the GI50 in the experiment on A549 NSCLC was 2.24 µM; in the experiment with CCRF-CEM leukemia, 0.323 µM; with MOLT-4 leukemia it was 0.449 µM; in the experiment with RPMI-8226 leukemia, 0.427 µM; with SF-268 CNS, 2.42 µM; in the experiment on SK-MEL-28 melanoma it was 1.18 µM. Further, the GI50 in the experiment with SK-MEL-5 melanoma is 1.49 µM; with SNB-19 CNS, 1.63 µM; in the experiment with SW-620 colon it was 0.373 µM. Further, the TGI in the experiment on A549 NSCLC is 7.62 µM; in the experiment with CCRF-CEM leukemia, 2.63 µM; with MOLT-4 leukemia it was 6.17 µM; in the experiment with RPMI-8226 leukemia, 2.81 µM; in the experiment on SF-268 CNS, over 100 µM; in the experiment on SK-MEL-28 melanoma, 3.1 µM. Also, the TGI turned out to be 3.23 µM with SK-MEL-5 melanoma, 5.73 µM in the experiment with SNB-19 CNS and 2.33 µM in the experiment with SW-620 colon.
`COc1cccc2c(Nc3ccc(C(=O)NCCNCCO)cc3)cc(-c3ccccc3)nc12`: the GI50 with A549 NSCLC was over 100 µM; with CAKI-1 renal it was over 100 µM; in the experiment with CCRF-CEM leukemia, 20.2 µM; in the experiment on RPMI-8226 leukemia, 24.5 µM; in the experiment on SK-MEL-28 melanoma, 35.2 µM; in the experiment on SK-MEL-5 melanoma it was 38.6 µM. Further, the GI50 in the experiment on SW-620 colon was 37.7 µM. The TGI is over 100 µM in the experiment with A549 NSCLC; over 100 µM in the experiment with CAKI-1 renal; 48.3 µM in the experiment with CCRF-CEM leukemia; 60.3 µM with RPMI-8226 leukemia; over 100 µM in the experiment with SK-MEL-28 melanoma; over 100 µM in the experiment with SK-MEL-5 melanoma. Moreover, in the experiment on SW-620 colon, the TGI was over 100 µM.
Take `N#Cc1c2ccccc2c2nnc3cc(C(F)(F)F)ccc3n12`: the GI50 is 36.3 µM with A549 NSCLC; 38.6 µM in the experiment with CAKI-1 renal; 34.7 µM with MOLT-4 leukemia; 55.1 µM with RPMI-8226 leukemia; 19.2 µM in the experiment on SF-268 CNS; 92.3 µM in the experiment on SK-MEL-28 melanoma. For the same compound, the GI50 in the experiment on SNB-19 CNS and with SW-620 colon was over 100 µM throughout. Also, the TGI in the experiment on A549 NSCLC, in the experiment with CAKI-1 renal, with MOLT-4 leukemia, in the experiment with RPMI-8226 leukemia, with SF-268 CNS and in the experiment on SK-MEL-28 melanoma was over 100 µM in each case. Also, the concentration for total growth inhibition (TGI) in the experiment with SNB-19 CNS and in the experiment on SW-620 colon was over 100 µM throughout.
Regarding `O=C(O)C(Cc1ccccc1-c1ccccc1)C(=O)O`, the TGI in the experiment with A549 NSCLC, in the experiment with CAKI-1 renal, in the experiment with MOLT-4 leukemia, in the experiment with RPMI-8226 leukemia, with SF-268 CNS and with SK-MEL-28 melanoma was over 100 µM throughout. For the same compound, the TGI with SK-MEL-5 melanoma, in the experiment with SNB-19 CNS and with SW-620 colon was over 100 µM in each case.
Turning to `O=C(Oc1cccc(Nc2ncnc3ccccc23)c1)c1ccccc1Cl`, the GI50 in the experiment on A549 NSCLC was 25.9 µM; with CAKI-1 renal, 9.6 µM; in the experiment with CCRF-CEM leukemia, 19.3 µM; with MOLT-4 leukemia it was over 100 µM; in the experiment on SF-268 CNS it was 20.8 µM; in the experiment on SK-MEL-28 melanoma it was 48.7 µM. Moreover, the GI50 in the experiment on SK-MEL-5 melanoma is 14.6 µM; in the experiment with SNB-19 CNS, 52.7 µM; in the experiment on SW-620 colon it was 21.8 µM. Moreover, the TGI in the experiment on A549 NSCLC was over 100 µM; in the experiment on CAKI-1 renal it was 35.8 µM; in the experiment with CCRF-CEM leukemia it was 65.1 µM; in the experiment with MOLT-4 leukemia, over 100 µM; with SF-268 CNS, 67 µM; with SK-MEL-28 melanoma, over 100 µM. For the same compound, the results for the TGI in the experiment on SK-MEL-5 melanoma, in the experiment with SNB-19 CNS and in the experiment on SW-620 colon were 28.2 µM, over 100 µM and 49.2 µM, respectively.
As for `CCNCCNc1cc(-c2ccc(Cl)cc2)c(C#N)c2nc3ccccc3n12`, the GI50 was 1.92 µM in the experiment with A549 NSCLC; 1.63 µM in the experiment with CAKI-1 renal; 0.49 µM with CCRF-CEM leukemia; 2.3 µM in the experiment with RPMI-8226 leukemia; 1.54 µM in the experiment on SF-268 CNS; 1.8 µM with SK-MEL-28 melanoma. Further, the figures for the GI50 in the experiment with SK-MEL-5 melanoma, in the experiment with SNB-19 CNS and in the experiment on SW-620 colon were 1.7 µM, 1.84 µM and 1.52 µM, respectively. In addition, the TGI came to 3.62 µM with A549 NSCLC; 3.28 µM with CAKI-1 renal; 2.41 µM in the experiment on CCRF-CEM leukemia; 4.92 µM in the experiment with RPMI-8226 leukemia; 3 µM in the experiment with SF-268 CNS; 3.34 µM in the experiment with SK-MEL-28 melanoma. In addition, the results for the TGI in the experiment on SK-MEL-5 melanoma, with SNB-19 CNS and with SW-620 colon were 3.11 µM, 3.64 µM and 3.14 µM, respectively.
Regarding `COC1CCC2C(=O)CCCC2O1` (stereo unspecified), the TGI in the experiment with A549 NSCLC, with CAKI-1 renal, with MOLT-4 leukemia, in the experiment on RPMI-8226 leukemia, with SF-268 CNS and with SK-MEL-5 melanoma was over 100 µM each time. Further, the TGI in the experiment on SNB-19 CNS and with SW-620 colon was over 100 µM each time.
